3 substances from US7097996B2, “Methods of screening test compounds using GADD34L, an eIF2α-specific phosphatase subunit” (New York University, priority 2002, dated 2006) can be followed below.

Read-outs that look alike come from different tables or passages of the source. d = 2'-deoxy (DNA); r = 2'-OH (RNA)

For one data set, the system named is HT22 cells. In words: HT22 cell survival (MTT) after toxic glutamate exposure. The following applies: HT22 cells preconditioned (70 μM 22P19 for 24 or 48 h, or siRNA transfection), then 5 mM or 10 mM glutamate for 18 hours. The data set is classed as cell-based. On the procedure: FIG. 6: Inhibition of endogenous GADD34L protects cells against oxidative toxicity. The bar graphs show percent survival of HT22 cells following exposure to toxic amounts of glutamate. HT22 cells were treated with 70 μM 22P19 for 24 or 48 h (top panel), or left untransfected (NTx), mock transfected, transfected with GADD34L siRNA, or transfected with control or CD2 siRNA (bottom panel), and then exposed to the indicated concentrations of glutamate for 18 hours.
In order to determine whether this preconditioning is protective against subsequent cell stress, cell survival rates of HT22 cells following toxic glutamate exposure were measured, where those HT22 cells had been preconditioned by 22P19- or RNAi-mediated inhibition of GADD34L (see FIG. 6).
For this assay, HT22 cells were either treated with 70 μM 22P19 for 24 or 48 h, or transfected with GADD34L siRNA or control CD2 siRNA, and then exposed to 0 mM, 5 mM, or 10 mM glutamate for 18 hours.

A further data set concerns CHOP::GFP reporter. As to the kind of experiment: CHOP::GFP reporter expression by FACS in CHOP::GFP CHO cells. The data set is classed as cell-based, Chinese Hamster. In general terms: A flow cytometer gives signals particle by particle.
The subject of data set [1] is CHOP protein and phosphorylated eIF2α in CHO cells. The data set is classed as cell-based, Chinese Hamster.
Where [2] appears, read: parental CHO cells, 1.75 μg/mL tunicamycin or 50 μM arsenite.

As for “GADD34L siRNA: complementary double stranded RNA oligonucleotides (SEQ ID NO: 9 and 10) targeting GADD34L mRNA, purchased from Dharmacon (chain 1 GGGAUGGAUGCAGGUUCCATT; chain 2 UGGAACCUGCAUCCAUCCCTT; sugars from the 5' end r19 d2, backbone not given here)”, the “cell survival following glutamate treatment” value in the data set with HT22 cells is recorded as “substantially improved cell survival”. In addition, the “CHOP::GFP expression in cells not subject to stress” value in the data set on CHOP::GFP reporter (CHO CHOP::GFP cells harvested 16, 24 or 44 hours after transfection) was “activates CHOP::GFP expression”.
On to arsenite, for which the “CHOP::GFP reporter expression” value in the data set with CHOP::GFP reporter was “substantially activated”. Besides, in data set [1], the CHOP protein level entry was “strong induction of CHOP protein” and the “phosphorylated eIF2α level” value was “increase in phosphorylated eIF2α levels”.
With tunicamycin, the “CHOP::GFP reporter expression” value in the data set on CHOP::GFP reporter (parental CHO cells, 8 hours, 1.75 μg/mL tunicamycin or 50 μM arsenite) is reported as “substantially activated”. Besides, in data set [1] (setting [2]), the CHOP protein level result is on record as “strong induction of CHOP protein” and the “phosphorylated eIF2α level” value is “increase in phosphorylated eIF2α levels”.
